Source: US8232288B2, “Substituted benzimidazoles, benzothiazoles and benzoxazoles” (Gruenenthal GmbH, priority 2009, dated 2012)

How the values were obtained:
[1] = target: T1, B1R receptor of the rat (rB1R) (Rattus norvegicus, UniProt P97583); experiment: Functional investigation on the bradykinin receptor 1 (B1R), FLIPR Ca2+ assay, rB1R cells; format: cell-based
T1 construct: expressed in transfected cells; host or cells: CHO K1 cells
T1 sequence (P97583 1-337): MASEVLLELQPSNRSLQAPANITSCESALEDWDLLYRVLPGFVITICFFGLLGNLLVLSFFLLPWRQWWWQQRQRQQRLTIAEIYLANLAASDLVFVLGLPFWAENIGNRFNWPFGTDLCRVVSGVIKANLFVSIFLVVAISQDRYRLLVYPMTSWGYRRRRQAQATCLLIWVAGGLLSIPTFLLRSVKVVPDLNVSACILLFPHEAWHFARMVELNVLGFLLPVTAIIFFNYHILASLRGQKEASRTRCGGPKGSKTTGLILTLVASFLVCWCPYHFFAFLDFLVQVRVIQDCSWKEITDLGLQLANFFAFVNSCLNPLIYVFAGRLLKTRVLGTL
Description: (§1) The agonistic or antagonistic action of substances can be quantified on the bradykinin receptor 1 (B1R) of the human and rat species with ectopically expressing cell lines (CHO K1 cells) and with the aid of a Ca^2+-sensitive dyestuff (Fluo-4) in a fluorescent imaging plate reader (FLIPR). The figure in % activation is based on the Ca^2+ signal after addition of Lys-Des-Arg^9-bradykinin (0.5 nM) or Des-Arg^9-bradykinin (100 nM). Antagonists lead to a suppression of the Ca^2+ inflow after addition of the agonist. % inhibition compared with the maximum achievable inhibition is stated.
(§2) The agonistic or antagonistic action of substances can be determined on the bradykinin receptor 1 (B1R) of the human and rat species with the following assay. In accordance with this assay, the Ca^2+ inflow through the channel is quantified with the aid of a Ca^2+-sensitive dyestuff (type Fluo-4, Molecular Probes Europe BV, Leiden Holland) in a fluorescent imaging plate reader (FLIPR, Molecular Devices, Sunnyvale, USA).
(§3) Chinese hamster ovary cells (CHO K1 cells) transfected stably with the human B1R gene (hB1R cells) or the B1R gene of the rat (rB1R cells) are used. For functional studies, these cells are plated out on black 96-well plates with a clear base (BD Biosciences, Heidelberg, Germany or Greiner, Frickenhausen, Germany) in a density of 20,000-35,000 cells/well. The cells are left overnight at 37° C. and 5% CO2 in culture medium (hB1R cells: Nutrient Mixture Ham's F12, Gibco Invitrogen GmbH, Karlsruhe, Germany or DMEM, Sigma-Aldrich, Taufkirchen, Germany; rB1R cells: D-MEM/F12, Gibco Invitrogen GmbH, Karlsruhe, Germany) with 10 vol. % FBS (foetal bovine serum, Gibco Invitrogen GmbH, Karlsruhe, Germany or PAN Biotech GmbH, Aidenbach, Germany). On the following day, the cells are loaded for 60 min at 37° C. with 2.13 μM Fluo-4 (Molecular Probes Europe BV, Leiden Holland) in HBSS buffer (Hank's buffered saline solution, Gibco Invitrogen GmbH, Karlsruhe, Germany) with 2.5 mM probenecid (Sigma-Aldrich, Taufkirchen, Germany) and 10 mM HEPES (Sigma-Aldrich, Taufkirchen, Germany). The plates are then washed 2× with HBSS buffer, and HBSS buffer which additionally contains 0.1% BSA (bovine serum albumin; Sigma-Aldrich, Taufkirchen, Germany), 5.6 mM glucose and 0.05% gelatine (Merck KGaA, Darmstadt, Germany) is added. After a further incubation of 20 minutes at room temperature, the plates are inserted into the FLIPR for the Ca^2+ measurement.
(§4) Alternatively, the plates are washed with buffer A (15 mM HEPES, 80 mM NaCl, 5 mM KCl, 1.2 mM CaCl2, 0.7 mM MgSO4, 2 g/l glucose, 2.5 mM probenecid), buffer A is added and the plates are loaded with 2.5 μM Fluo-4 and 0.025% Pluronic F127 (Sigma-Aldrich, Taufkirchen, Germany). Thereafter, the cells are washed 2× with buffer A and incubated for 30 minutes at room temperature with buffer A, which additionally contains 0.05% BSA and 0.05% gelatine, and thereafter inserted into the FLIPR for the Ca^2+ measurement.
(§5) The Ca^2+-dependent fluorescence is measured here before and after addition of substances (λex=488 nm, λem=540 nm). Quantification is by measurement of the highest fluorescence intensity (FC, fluorescence counts) over time.
(§6) The FLIPR protocol consists of 2 additions of substance. Test substances (10 μM) are first pipetted on to the cells and the Ca^2+ inflow is compared with the control (hB1R: Lys-Des-Arg^9-bradykinin>=50 nM; rB1R: Des-Arg^9-bradykinin 10 μM). This gives the result in % activation based on the Ca^2+ signal after addition of Lys-Des-Arg^9-bradykinin (>=50 nM) or Des-Arg^9-bradykinin (10 μM). After incubation for 10-20 minutes, Lys-Des-Arg^9-bradykinin (hB1R) or Des-Arg^9-bradykinin (rB1R) in the concentration of the EC80 is applied and the inflow of Ca^2+ is likewise determined. Antagonists lead to a suppression of the Ca^2+ inflow. % inhibition compared with the maximum achievable inhibition is calculated.
(§7) In order to determine the IC50 value, the substances are added in various concentrations. […]

[2] = target: T2, human B1R receptor (hB1R) (Homo sapiens, UniProt P46663); experiment: Functional investigation on the bradykinin receptor 1 (B1R), FLIPR Ca2+ assay, hB1R cells; format: cell-based
T2 construct: expressed in transfected cells; host or cells: CHO K1 cells
T2 sequence (P46663 1-353): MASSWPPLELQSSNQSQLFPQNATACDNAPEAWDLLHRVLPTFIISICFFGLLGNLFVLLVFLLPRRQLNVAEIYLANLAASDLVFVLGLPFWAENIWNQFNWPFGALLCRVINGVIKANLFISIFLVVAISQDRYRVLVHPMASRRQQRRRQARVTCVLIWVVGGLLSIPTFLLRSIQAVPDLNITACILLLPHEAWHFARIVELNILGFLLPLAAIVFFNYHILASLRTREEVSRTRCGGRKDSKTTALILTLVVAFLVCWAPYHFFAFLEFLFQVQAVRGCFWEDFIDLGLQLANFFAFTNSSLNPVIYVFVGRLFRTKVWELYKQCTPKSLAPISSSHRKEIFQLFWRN
Description: as §1, §2, §3, §4, §5, §6, §7

Compound	inhibition at 10 µM [1]	inhibition at 10 µM [2]
COc1cc(C)c(S(=O)(=O)N(C)C(C)c2nc3cccc(C(=O)N4CCC5(CCN(Cc6[nH]cnc6C)CC5)CC4)c3[nH]2)c(C)c1 (stereo not shown) [I_CC-35, 4-Methoxy-N,2,6-trimethyl-N-[1-[7-[9-[(5-methyl-3H-imidazol-4-yl)-methyl]-3,9-diazaspiro[5.5]undecane-3-carbonyl]-1H-benzoimidazol-2-yl]-ethyl]-benzenesulfonic acid amide]	104%	68%
CN(Cc1nc2ccc(C(=O)N3CCC4(CC3)CCN(c3ccncc3)CC4)cc2[nH]1)S(=O)(=O)c1cccc2ccccc12 [I_25, N-methyl-N-[[6-(9-pyridin-4-yl-3,9-diazaspiro[5.5]undecane-3-carbonyl)-1H-benzoimidazol-2-yl]-methyl]-naphthalene-1-sulfonic acid amide]	96%	95%
CN(Cc1nc2cccc(C(=O)N3CCC4(CC3)CCN(c3ccncc3)CC4)c2[nH]1)C(=O)c1ccc(Cl)s1 [I_16, 5-chloro-N-methyl-N-[[7-(9-pyridin-4-yl-3,9-diazaspiro[5.5]undecane-3-carbonyl)-1H-benzoimidazol-2-yl]-methyl]-thiophene-2-carboxylic acid amide]	105%	91%
CN(Cc1nc2cccc(C(=O)N3CCC4(CC3)CCN(c3ccncc3)CC4)c2[nH]1)S(=O)(=O)c1ccccc1C(F)(F)F [I_08, N-methyl-N-[[7-(9-pyridin-4-yl-3,9-diazaspiro[5.5]undecane-3-carbonyl)-1H-benzoimidazol-2-yl]-methyl]-2-(trifluoromethyl)-benzenesulfonic acid amide]	99%	100%
COc1cc(C)c(S(=O)(=O)N(Cc2nc3cccc(C(=O)N4CCC5(CC4)CCN(c4ccncc4)CC5)c3[nH]2)C2CC2)c(C)c1 [I_14, N-cyclopropyl-4-methoxy-2,6-dimethyl-N-[[7-(9-pyridin-4-yl-3,9-diazaspiro[5.5]undecane-3-carbonyl)-1H-benzoimidazol-2-yl]-methyl]-benzenesulfonic acid amide]	95%	99%
COc1cc(C)c(S(=O)(=O)N(C)C(C)c2nc3cccc(C(=O)N4CCC5(CCN(Cc6c[nH]c(C)n6)CC5)CC4)c3[nH]2)c(C)c1 (stereo not shown) [I_CC-37, 4-Methoxy-N,2,6-trimethyl-N-[1-[7-[9-[(2-methyl-1H-imidazol-4-yl)-methyl]-3,9-diazaspiro[5.5]undecane-3-carbonyl]-1H-benzoimidazol-2-yl]-ethyl]-benzenesulfonic acid amide]	101%	80%
COc1cc(C)c(S(=O)(=O)N(C)c2nc3ccc(C(=O)N4CCC5(CC4)CCN(c4ccncc4)CC5)cc3n2C)c(C)c1 [I_CC-17, 4-methoxy-N,2,6-trimethyl-N-[1-methyl-6-(3-pyridin-4-yl-3,9-diazaspiro[5.5]undecane-9-carbonyl)-1H-benzoimidazol-2-yl]-benzenesulfonic acid amide]	56%	71%
COc1cc(C)c(S(=O)(=O)N(C)C(C)c2nc3cccc(C(=O)N4CCC5(CC4)CCN(S(=O)(=O)c4ccccc4C#N)CC5)c3[nH]2)c(C)c1 (stereo not shown) [I_CC-59, N-[1-[7-[9-[(2-Cyano-phenyl)sulfonyl]-3,9-diazaspiro[5.5]undecane-3-carbonyl]-1H-benzoimidazol-2-yl]-ethyl]-4-methoxy-N,2,6-trimethyl-benzenesulfonic acid amide]	103%	20%
O=C1c2c(Cl)cccc2CN1Cc1nc2cccc(C(=O)N3CCC4(CC3)CCN(c3ccncc3)C4)c2[nH]1 [I_CC-13, 7-chloro-2-[[7-(3-pyridin-4-yl-3,8-diazaspiro[4.5]decane-8-carbonyl)-1H-benzoimidazol-2-yl]-methyl]-2,3-dihydro-isoindol-1-one]	49%	71%
CN(Cc1nc2cccc(C(=O)N3CCC4(CC3)CCN(c3ccncc3)CC4)c2[nH]1)C(=O)c1ccccc1Cl [I_CC-04, 2-chloro-N-methyl-N-[[7-(3-pyridin-4-yl-3,9-diazaspiro[5.5]undecane-9-carbonyl)-1H-benzoimidazol-2-yl]-methyl]-benzamide]	102%	65%
COc1cc(C)c(C(=O)N(C)Cc2nc3cccc(C(=O)N4CCC5(CC4)CCN(c4ccncc4)CC5)c3[nH]2)c(C)c1 [I_CC-23, 4-methoxy-N,2,6-trimethyl-N-[[7-(3-pyridin-4-yl-3,9-diazaspiro[5.5]undecane-9-carbonyl)-1H-benzoimidazol-2-yl]-methyl]-benzamide]	105%	100%
CN(Cc1nc2ccc(C(=O)N3CCC4(CC3)CCN(c3ccncc3)CC4)cc2[nH]1)S(=O)(=O)c1ccccc1C(F)(F)F [I_24, N-methyl-N-[[6-(9-pyridin-4-yl-3,9-diazaspiro[5.5]undecane-3-carbonyl)-1H-benzoimidazol-2-yl]-methyl]-2-(trifluoromethyl)-benzenesulfonic acid amide]	102%	100%
CN(Cc1nc2cccc(C(=O)N3CCC4(CC3)CCN(c3ccncc3)CC4)c2[nH]1)C(=O)c1sccc1Cl [I_CC-05, 3-chloro-N-methyl-N-[[7-(3-pyridin-4-yl-3,9-diazaspiro[5.5]undecane-9-carbonyl)-1H-benzoimidazol-2-yl]-methyl]-thiophene-2-carboxylic acid amide]	93%	30%
COc1cc(C)c(S(=O)(=O)N(C)C(C)c2nc3cccc(C(=O)N4CCC5(CCN(Cc6ccccc6C#N)CC5)CC4)c3[nH]2)c(C)c1 (stereo not shown) [I_CC-45, N-[1-[7-[9-[(2-Cyano-phenyl)-methyl]-3,9-diazaspiro[5.5]undecane-3-carbonyl]-1H-benzoimidazol-2-yl]-ethyl]-4-methoxy-N,2,6-trimethyl-benzenesulfonic acid amide]	98%	81%
